In PubChem BioAssay (NCI):
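GI50 is the concentration that inhibits growth by half. TGI is the concentration that stops growth completely.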

Legend:
Test in all cases: NCI anticancer screen, dose series, 384-well format
HOP-62 NSCLC = test system: HOP-62 NSCLC
HCT-116 colon = test system: HCT-116 colon
NCI-H460 NSCLC = test system: NCI-H460 NSCLC
OVCAR-8 ovarian = test system: OVCAR-8 ovarian
HCT-15 colon = test system: HCT-15 colon
UACC-257 melanoma = test system: UACC-257 melanoma
UACC-62 melanoma = test system: UACC-62 melanoma
NCI/ADR-RES ovarian = test system: NCI/ADR-RES ovarian
ACHN renal = test system: ACHN renal
K-562 leukemia = test system: K-562 leukemia
OVCAR-4 ovarian = test system: OVCAR-4 ovarian
T-47D breast = test system: T-47D breast
KM12 colon = test system: KM12 colon

SMILES | GI50 (HOP-62 NSCLC) [µM] | TGI (HOP-62 NSCLC) [µM] | GI50 (HCT-116 colon) [µM] | TGI (HCT-116 colon) [µM] | GI50 (NCI-H460 NSCLC) [µM] | TGI (NCI-H460 NSCLC) [µM] | GI50 (OVCAR-8 ovarian) [µM] | TGI (OVCAR-8 ovarian) [µM] | GI50 (HCT-15 colon) [µM] | TGI (HCT-15 colon) [µM] | GI50 (UACC-257 melanoma) [µM] | TGI (UACC-257 melanoma) [µM] | GI50 (UACC-62 melanoma) [µM] | TGI (UACC-62 melanoma) [µM] | GI50 (NCI/ADR-RES ovarian) [µM] | TGI (NCI/ADR-RES ovarian) [µM] | GI50 (ACHN renal) [µM] | TGI (ACHN renal) [µM] | GI50 (K-562 leukemia) [µM] | TGI (K-562 leukemia) [µM] | also measured
C[C@@H](Oc1cc(NS(=O)(=O)N2CCC2)nc(SCc2cccc(F)c2F)n1)[C@@H](O)CO | > 100 | > 100 | > 100 | > 100 | > 100 | > 100 | > 100 | > 100 | > 100 | > 100 | > 87.1 | > 100 | > 57.2 | > 100 | > 100 | > 100 | > 100 | > 100 | > 68.3 | > 100 | GI50 (OVCAR-4 ovarian): > 72.7 µM; TGI (OVCAR-4 ovarian): > 100 µM; GI50 (T-47D breast): > 100 µM; TGI (T-47D breast): > 100 µM; GI50 (KM12 colon): 98.3 µM; TGI (KM12 colon): > 100 µM
COc1cc(C)[nH]c(=O)c1CN1CCc2c(Cl)cc([C@H](OC)C3COC3)c(Cl)c2C1=O | > 100 | > 100 | > 100 | > 100 | > 100 | > 100 | > 100 | > 100 | > 100 | > 100 | > 100 | > 100 | > 100 | > 100 | > 100 | > 100 | > 100 | > 100 | > 100 | > 100 | GI50 (OVCAR-4 ovarian): > 100 µM; TGI (OVCAR-4 ovarian): > 100 µM; GI50 (T-47D breast): > 91.9 µM; TGI (T-47D breast): > 100 µM; GI50 (KM12 colon): > 100 µM; TGI (KM12 colon): > 100 µM
